According to patent US20220288058A1, “COMBINATION THERAPY USING A MALT1 INHIBITOR AND A BTK INHIBITOR” (Janssen Pharmaceutica NV, priority 2021, published 2022):

Test system: OCI-LY10 human DLBCL xenografts
Assay: Study 4: combination efficacy (Compound B BID + Compound A BID), OCI-LY10 xenografts in NSG mice
Format: in vivo, mouse
Procedure: Following early animal dropouts in Study 2 due to tumor progression (metastasis and hindlimb paralysis), NSG female mice in Study 3 and Study 4 were injected SC into the right flank with a lower cell number (1×10^6 OCI-LY10 cells) in PBS containing 50% Matrigel™. On day 35 (Study 3) or day 32 (Study 4), mice were randomized based on tumor volume (see Table 4) and dosed orally QD day with Compound B and BID with Compound A (Study 3) or BID for both compounds (Study 4) with various dose concentrations according to treatment schedule above (see Table 4) for a period of 21 days.
Tumor volume in SC models was calculated using the formula: tumor volume (mm^3)=(D×d^2/2); where “D” represents the larger diameter and “d” the smaller diameter of the tumor as determined by calliper measurements. Tumor volume data was graphed as the mean tumor volume f SEM.
The percent ΔTGI was defined as the difference between mean tumor burden of the treatment and control groups, calculated using the following formula: ([(TVc−TVc0)−(TVt−TVt0)]/(TVc−TVc0))×100, where “TVc” is the mean tumor burden of a given control group, “TVc0” is the mean initial tumor burden of a given control group, “TVt” is the mean tumor burden of the treatment group, and “TVt0” is the mean initial tumor burden of the treatment group. The percent tumor growth inhibition (TGI) was defined as the difference between mean tumor volumes of the treated and control groups, calculated as: ((TVc−TVt)/TVc)×100 where “TVc” is the mean tumor volume of the control group and “TVt” is the mean tumor volume of the treatment group. […]
Tumor regression was calculated when mean tumor burden in treated group was smaller than the tumor burden at start of treatment of the same treated group. The % Tumor Regression (TR), quantified to reflect the treatment-related reduction of tumor volume as compared to baseline independent of the control group, was calculated using the following formula: % TR=(1-mean (TVti/TVt0i))×100 where “TVti” is the tumor burden of individual animals in a treatment group, and “TVt0i” is the initial tumor burden of the animal. […]

[1] = Study 4, day 52, Compound B 15 mg/kg BID

Question: For C=CC(=O)N[C@H]1CCC[C@H]1NC(=O)c1sc2nccc3c2c1NC(=O)N3c1cnc(CC(C)C)cc1C (atropisomer, axis not shown) [Compound B, N-((1R,2S)-2-acrylamidocyclopentyl)-5-(S)-(6-isobutyl-4-methylpyridin-3-yl)-4-oxo-4,5-dihydro-3H-1-thia-3,5,8-triazaacenaphthylene-2-carboxamide], which TGI [1] is on record?
Answer: Its TGI is 49%.

Question: What about the ΔTGI [1] of the same compound?
Answer: Its ΔTGI is 56%.

Question: And the “TR (tumor regression)” value (Study 4, Compound B 50 mg/kg BID monotherapy)?
Answer: Its value is 8%.
